Measurements as given in ChEMBL document CHEMBL4613266, “Discovery and Structure Relationships of Salicylanilide Derivatives as Potent, Non-acidic P2X1 Receptor Antagonists” (J Med Chem, 2020).

Legend:
[1] = target: T1, P2X purinoceptor 1 (Homo sapiens) (UniProt P51575); assay: Antagonist activity at non-desensitizing human P2X1 receptor ( P2X2/P2X1 chimera) expressed in human 1321N1 cells assessed as inhibition of ATP-induced calcium influx at 100 uM pre-incubated for 30 mins before ATP stimulation by FLIPR assay relative to control; format: cell-based
T1 sequence (whole entry): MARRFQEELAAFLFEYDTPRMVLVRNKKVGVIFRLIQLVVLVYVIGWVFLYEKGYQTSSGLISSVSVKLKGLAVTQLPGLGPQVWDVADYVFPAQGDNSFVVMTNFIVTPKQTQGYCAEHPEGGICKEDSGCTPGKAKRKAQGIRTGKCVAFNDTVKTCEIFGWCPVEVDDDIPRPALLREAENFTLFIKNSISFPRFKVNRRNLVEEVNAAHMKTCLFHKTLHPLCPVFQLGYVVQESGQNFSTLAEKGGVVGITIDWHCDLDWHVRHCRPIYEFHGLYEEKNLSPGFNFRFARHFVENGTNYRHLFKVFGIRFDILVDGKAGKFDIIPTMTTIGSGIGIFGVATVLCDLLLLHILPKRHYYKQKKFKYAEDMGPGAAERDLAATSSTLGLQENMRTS

P2X purinoceptor 1 [2] = target: P2X purinoceptor 1 (Homo sapiens, UniProt P51575); assay: Antagonist activity at non-desensitizing human P2X1 receptor ( P2X2/P2X1 chimera) expressed in human 1321N1 cells assessed as inhibition of ATP-induced calcium influx pre-incubated for 30 mins before ATP stimulation by FLIPR assay relative to control; format: cell-based
[3] = target: T1, P2X purinoceptor 1 (Homo sapiens); assay: Antagonist activity at non-desensitizing human P2X1 receptor ( P2X2/P2X1 chimera) expressed in human 1321N1 cells assessed as inhibition of ATP-induced calcium influx at 1 uM pre-incubated for 30 mins before ATP stimulation by FLIPR assay relative to control; format: cell-based
P2X purinoceptor 1 [4] = target: T2, P2X purinoceptor 1 (Rattus norvegicus, UniProt P47824); assay: Antagonist activity at rat P2X1 receptor
T2 sequence (P47824 whole entry): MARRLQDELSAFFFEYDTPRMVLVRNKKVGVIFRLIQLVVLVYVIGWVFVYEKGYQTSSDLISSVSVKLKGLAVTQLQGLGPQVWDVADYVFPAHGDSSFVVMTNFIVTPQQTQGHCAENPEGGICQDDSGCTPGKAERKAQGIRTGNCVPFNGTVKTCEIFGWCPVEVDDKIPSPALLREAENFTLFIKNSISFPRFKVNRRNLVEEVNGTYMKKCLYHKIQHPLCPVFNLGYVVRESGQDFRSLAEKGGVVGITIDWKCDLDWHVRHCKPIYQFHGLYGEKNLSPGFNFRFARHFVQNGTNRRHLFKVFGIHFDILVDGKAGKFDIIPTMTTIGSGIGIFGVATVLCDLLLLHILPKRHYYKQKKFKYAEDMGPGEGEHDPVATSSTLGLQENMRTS

[5] = target: T1, P2X purinoceptor 1 (Homo sapiens); assay: Antagonist activity at non-desensitizing human P2X1 receptor ( P2X2/P2X1 chimera) expressed in human 1321N1 cells assessed as inhibition of ATP-induced calcium influx at 10 uM pre-incubated for 30 mins before ATP stimulation by FLIPR assay relative to control; format: cell-based
[6] = target: T1, P2X purinoceptor 1 (Homo sapiens); assay: Antagonist activity P2X1 receptor in Apyrase pre-treated human platelets assessed as inhibition of TRAP6-induced platelet aggregation pre-incubated for 30 mins before TRAP6 stimulation by aggregometry relative to control; format: cell-based
[7] = target: T1, P2X purinoceptor 1 (Homo sapiens); assay: Antagonist activity P2X1 receptor in human platelets assessed as inhibition of ADP-induced platelet aggregation pre-incubated for 30 mins before ADP stimulation by aggregometry relative to control; format: cell-based
P2X purinoceptor 2 = target: T3, P2X purinoceptor 2 (Homo sapiens, UniProt Q9UBL9); assay: Antagonist activity at human P2X2 receptor expressed in human 1321N1 cells assessed as inhibition of ATP-induced cytosolic calcium influx preincubated for 30 mins followed by ATP addition by Fluo-4 AM dye-based fluorescence assay; format: cell-based
T3 sequence (Q9UBL9 whole entry): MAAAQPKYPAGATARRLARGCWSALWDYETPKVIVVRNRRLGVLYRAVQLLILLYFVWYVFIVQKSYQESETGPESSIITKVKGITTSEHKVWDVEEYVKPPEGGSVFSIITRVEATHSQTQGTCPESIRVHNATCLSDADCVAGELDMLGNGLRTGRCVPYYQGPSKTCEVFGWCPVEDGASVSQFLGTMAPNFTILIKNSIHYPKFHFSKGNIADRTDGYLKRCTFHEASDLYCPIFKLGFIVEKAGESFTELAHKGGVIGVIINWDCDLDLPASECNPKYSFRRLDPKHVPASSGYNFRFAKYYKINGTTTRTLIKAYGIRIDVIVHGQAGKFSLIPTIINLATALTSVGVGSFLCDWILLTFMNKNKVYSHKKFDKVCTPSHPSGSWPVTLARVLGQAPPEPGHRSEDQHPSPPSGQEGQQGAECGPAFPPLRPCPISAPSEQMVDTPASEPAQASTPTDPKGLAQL

P2X purinoceptor 3 = target: T4, P2X purinoceptor 3 (Homo sapiens, UniProt P56373); assay: Antagonist activity at human P2X3 receptor expressed in human 1321N1 cells assessed as inhibition of ATP-induced cytosolic calcium influx preincubated for 30 mins followed by ATP addition by Fluo-4 AM dye-based fluorescence assay; format: cell-based
T4 sequence (P56373 whole entry): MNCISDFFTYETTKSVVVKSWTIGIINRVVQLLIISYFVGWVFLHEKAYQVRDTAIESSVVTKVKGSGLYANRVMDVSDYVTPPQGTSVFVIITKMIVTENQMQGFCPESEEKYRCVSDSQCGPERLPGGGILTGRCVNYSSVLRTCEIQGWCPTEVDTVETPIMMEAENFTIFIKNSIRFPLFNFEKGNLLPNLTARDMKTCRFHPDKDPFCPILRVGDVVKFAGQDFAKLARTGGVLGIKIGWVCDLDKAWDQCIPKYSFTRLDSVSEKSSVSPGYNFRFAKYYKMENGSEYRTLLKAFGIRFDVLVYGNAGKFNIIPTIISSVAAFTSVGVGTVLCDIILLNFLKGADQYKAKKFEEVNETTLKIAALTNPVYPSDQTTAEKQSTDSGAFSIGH

[8] = target: T5, P2X purinoceptor 2 (Homo sapiens) (UniProt Q9UBL9); assay: Antagonist activity at human P2X2 receptor expressed in human 1321N1 cells assessed as inhibition of ATP-induced cytosolic calcium influx at 10 uM preincubated for 30 mins followed by ATP addition by Fluo-4 AM dye-based fluorescence assay relative to control; format: cell-based
T5 sequence (whole entry): T3 sequence (Q9UBL9 whole entry)

P2X purinoceptor 7 = target: T6, P2X purinoceptor 7 (Homo sapiens, UniProt Q99572); assay: Antagonist activity at human P2X7 receptor expressed in human 1321N1 cells assessed as inhibition of ATP-induced cytosolic calcium influx preincubated for 30 mins followed by ATP addition by Fluo-4 AM dye-based fluorescence assay; format: cell-based
T6 sequence (Q99572 whole entry): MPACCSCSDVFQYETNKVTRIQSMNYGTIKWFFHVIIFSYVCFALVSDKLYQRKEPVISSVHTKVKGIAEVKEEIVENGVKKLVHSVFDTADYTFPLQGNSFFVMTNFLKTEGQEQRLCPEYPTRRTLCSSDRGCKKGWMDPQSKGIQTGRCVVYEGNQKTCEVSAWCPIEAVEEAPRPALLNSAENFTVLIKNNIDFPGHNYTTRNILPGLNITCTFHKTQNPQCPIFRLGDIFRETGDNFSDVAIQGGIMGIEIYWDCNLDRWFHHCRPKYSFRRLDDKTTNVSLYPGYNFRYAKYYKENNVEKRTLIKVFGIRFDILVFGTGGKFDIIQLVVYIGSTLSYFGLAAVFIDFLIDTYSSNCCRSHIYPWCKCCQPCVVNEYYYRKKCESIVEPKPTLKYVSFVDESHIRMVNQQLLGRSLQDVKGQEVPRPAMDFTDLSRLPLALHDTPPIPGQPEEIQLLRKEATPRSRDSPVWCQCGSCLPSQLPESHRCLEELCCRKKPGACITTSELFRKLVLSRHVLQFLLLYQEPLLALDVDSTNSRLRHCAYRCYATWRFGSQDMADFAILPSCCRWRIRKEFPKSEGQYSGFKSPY

[9] = target: T7, P2X purinoceptor 3 (Homo sapiens) (UniProt P56373); assay: Antagonist activity at human P2X3 receptor expressed in human 1321N1 cells assessed as inhibition of ATP-induced cytosolic calcium influx at 10 uM preincubated for 30 mins followed by ATP addition by Fluo-4 AM dye-based fluorescence assay relative to control; format: cell-based
T7 sequence (whole entry): T4 sequence (P56373 whole entry)

P2X purinoceptor 4 = target: T8, P2X purinoceptor 4 (Homo sapiens, UniProt Q99571); assay: Antagonist activity at human P2X4 receptor expressed in human 1321N1 cells assessed as inhibition of ATP-induced cytosolic calcium influx preincubated for 30 mins followed by ATP addition by Fluo-4 AM dye-based fluorescence assay; format: cell-based
T8 sequence (Q99571 whole entry): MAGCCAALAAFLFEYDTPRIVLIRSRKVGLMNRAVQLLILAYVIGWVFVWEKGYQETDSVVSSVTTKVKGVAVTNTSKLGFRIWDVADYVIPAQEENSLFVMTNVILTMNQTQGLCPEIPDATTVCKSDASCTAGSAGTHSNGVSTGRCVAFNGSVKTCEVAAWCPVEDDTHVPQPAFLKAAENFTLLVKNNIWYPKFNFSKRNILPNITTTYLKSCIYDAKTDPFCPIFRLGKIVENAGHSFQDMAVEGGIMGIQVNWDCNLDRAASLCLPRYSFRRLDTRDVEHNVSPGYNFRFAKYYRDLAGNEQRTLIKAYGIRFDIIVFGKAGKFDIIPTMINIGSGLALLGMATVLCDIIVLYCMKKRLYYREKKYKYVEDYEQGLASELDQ

Row | SMILES | inhibition [1] [%] | IC50 (P2X purinoceptor 1 [2]) [nM] | inhibition [5] [%] | other results
1 | O=C(Nc1ccc(Cl)c([N+](=O)[O-])c1)c1cc(Cl)ccc1O | 80 | 13500 |  | 
2 | O=C(Nc1cc(C(F)(F)F)cc(C(F)(F)F)c1)N1CCCc2cccc(O)c21 | 77 | 10400 |  | 
3 | N#Cc1cccc(NC(=O)c2cc(Cl)ccc2O)c1 |  | 522 |  | inhibition [3]: 60%
4 | O=C(N[C@H](Cc1cscn1)C(=O)N[C@@H](CC1CCCCC1)[C@@H](O)[C@@H](O)C1CC1)c1nc2ccccc2[nH]1 |  | 496 | 100 | IC50 (P2X purinoceptor 1 [4]): 3000 nM
5 | O=S(=O)(Nc1cc(C(F)(F)F)cc(C(F)(F)F)c1)c1cc(Cl)ccc1O |  | 439 | 80 | inhibition [6]: 8%; inhibition [7]: 27%
6 | O=C(Nc1cc(C(F)(F)F)cc(C(F)(F)F)c1)c1cccc(Cl)c1O |  | 58 | 83 | IC50 (P2X purinoceptor 2): > 10000 nM; IC50 (P2X purinoceptor 3): > 10000 nM; inhibition [8]: 13%; IC50 (P2X purinoceptor 7): 177 nM; inhibition [9]: 28%; IC50 (P2X purinoceptor 4): 48.8 nM
7 | O=C(Nc1cccc(Cl)c1)c1cc(Cl)ccc1O |  | 75.6 | 64 | IC50 (P2X purinoceptor 2): > 10000 nM; IC50 (P2X purinoceptor 3): > 10000 nM; inhibition [8]: 0%; IC50 (P2X purinoceptor 7): 599 nM; inhibition [9]: 3%; IC50 (P2X purinoceptor 4): 135 nM
8 | O=C(Nc1cc([N+](=O)[O-])cc(C(F)(F)F)c1)c1cccc(Cl)c1O | 83 | 219 |  | 
9 | O=C(Nc1cc(C(F)(F)F)cc(C(F)(F)F)c1)c1ccccc1 |  | 2220 | 79 | inhibition [7]: 47%
10 | O=C(Nc1cccc(Br)c1)c1ccccc1O | 98 | 2690 |  | 
